Columns and labels:
Cbl-b [1] = target: T1, Cbl-b (Homo sapiens, UniProt Q13191); experiment: Cbl-b inhibition assay (Cbl-b activity assay, FRET, Biological Example 1; 100 mM NaCl, 60 nM Src kinase); type: biochemical; conditions: upper bound stated in text lists; read-out: IC50 values in the Cbl-b inhibition assay of Biological Example 1
Outline: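 Inhibitor activity is measured as reduced terbium-to-fluorescein FRET between streptavidin-terbium on biotinylated Cbl-b and Bodipy-fluorescein ubiquitin carried by an irreversible UbcH5B-Ub conjugate, binding of which depends on Src phosphorylation of Cbl-b.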

Cbl-b (residues 36-427) = Cbl-b (residues 36-427) (Homo sapiens, UniProt Q13191); experiment: Cbl-b binding assay (SPR, Biacore T200); conditions: 20° C., 1:1 binding model
Experimental: SPR data was collected on a Biacore T200 (GE Healthcare) using a NeutrAvidin (Invitrogen) capture surface that was generated on a polycarboxylate hydrogel sensor chip of medium charge density (XanTec Bioanalytics GmbH) at 20° C. The surface was prepared using 20 mM HEPES, pH 7.5, 100 mM NaCl, 0.5 mM TCEP, 0.01% Triton X-100 as the immobilization buffer. Neutravidin was coupled to the sensor chip through EDC/NHS amine coupling. All steps were performed using a flow rate of 10 μl/min. First, the chip was preconditioned with a 3-min injection of 1 M NaCl, 0.1 M Borate followed by a 10-min equilibration in immobilization buffer. The surface was activated by a 5-min injection of 100 mM EDC/50 mM NHS. Next, 250 μg/mL NeutrAvidin buffered in 10 mM sodium acetate buffer, pH 5.0 was injected over the surface for 2 min. The surface was deactivated with 1 M Tris, pH 8.5 for 7 min then re-equilibrated in immobilization buffer for 7 min. […] Flow cell 1 served as a reference surface and was prepared without protein. All binding measurements were made in 20 mM HEPES, pH 7.5, 100 mM NaCl, 0.5 mM TCEP, 0.01% Triton X-100, 2% DMSO (referred as assay buffer) at 20° C. Compounds, prepared in assay buffer, were diluted from atop concentration of either 100 μM or 50 μM using either a 2- or 3-fold dilution scheme containing 8 or 10 points. Samples were injected for 50 s at 50 μl/min. Dissociation time varied from 90-180 s, depending on anticipated potency. The surface was regenerated by injection of 0.3 M NaCl, prepared in assay buffer for 20 s at 10 μl/min. Positive and negative control samples were run between each compound to monitor surface integrity.
Column marked with an asterisk (*) were tested as described above with assay buffer containing 50 mM NaCl instead of 100 mM NaCl and 30 nM Src kinase instead of 60 nM Src kinase. The resulting data for the Cbl-b binding assay was solvent corrected and double referenced prior to analysis. All data were globally fit to a steady-state affinity and kinetic binding model where applicable). Fit parameters were derived from a 1:1 binding model using the Biacore T200 Evaluation Software V2.0 (GE Healthcare) (Table 2).

Cbl-b [2] = target: T1, Cbl-b; experiment: Cbl-b activity assay (Cbl-b inhibition assay), TR-FRET of Cbl-b interaction with UbcH5B-Ub; type: biochemical
Outline: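 TR-FRET readout of Cbl-b binding to Bodipy-fluorescein N-terminally labeled Ub conjugated to UbcH5B C85K, measured with compound present. After compound incubation, 60 nM Src kinase with 1 mM ATP and 5 mM MgCl2 (final) was added for 1.5 h, then a further 1 h incubation; asterisked values used 50 mM NaCl buffer and 30 nM Src.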

[3] = assay buffer with 100 mM NaCl, 60 nM Src kinase, read-out: Cbl-b activity IC50
[4] = * assay buffer containing 50 mM NaCl instead of 100 mM NaCl and 30 nM Src kinase instead of 60 nM, read-out: Cbl-b activity IC50 (μM)*

T1 sequence (Q13191 36-427): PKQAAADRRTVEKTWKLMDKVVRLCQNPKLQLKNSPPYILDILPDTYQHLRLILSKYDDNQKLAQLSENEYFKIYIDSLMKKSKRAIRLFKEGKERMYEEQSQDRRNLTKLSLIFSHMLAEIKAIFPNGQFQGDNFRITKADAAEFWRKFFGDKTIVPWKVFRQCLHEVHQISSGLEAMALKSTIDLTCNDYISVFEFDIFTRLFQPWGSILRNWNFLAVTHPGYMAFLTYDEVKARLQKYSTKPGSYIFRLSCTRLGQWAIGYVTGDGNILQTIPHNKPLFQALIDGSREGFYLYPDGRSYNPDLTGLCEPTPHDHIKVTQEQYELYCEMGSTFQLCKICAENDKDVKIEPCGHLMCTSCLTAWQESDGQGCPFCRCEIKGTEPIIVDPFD
Sequence of Cbl-b (residues 36-427) (Q13191 36-427): as above

SMILES	IC50 (Cbl-b [1]) [µM]	Kd (Cbl-b (residues 36-427)) [µM]	IC50 (Cbl-b [2]; [3]) [µM]	IC50 (Cbl-b [2]; [4]) [µM]
C[C@H](Sc1nncn1C)c1ccnc(NC(=O)c2cccc(C3CC3)n2)c1 [Compound 117, 6-cyclopropyl-N-[4-[(1S)-1-[(4-methyl-1,2,4-triazol-3-yl)sulfanyl]ethyl]-2-pyridyl]pyridine-2-carboxamide]	≤ 10	3 to 10	1 to 3	
C[C@H](Sc1nncn1C)c1ccnc(NC(=O)c2cc(C(F)(F)F)c3ccccc3n2)c1 [Compound 111, (S)-N-(4-(1-((4-methyl-4H-1,2,4-triazol-3-yl)thio)ethyl)pyridin-2-yl)-4-(trifluoromethyl)quinoline-2-carboxamide]	≤ 10	3 to 10	3 to 10	
C[C@H](Cc1nncn1C)c1cccc(NC(=O)c2cc(C(=O)N[C@@H]3CCNC3)ccn2)c1 [Compound 247, N2-[3-[(2R)-1-(4-methyl-4H-1,2,4-triazol-3-yl)propan-2-yl]phenyl]-N4-[(3R)-pyrrolidin-3-yl]pyridine-2,4-dicarboxamide]	≤ 10	3 to 10	3 to 10	
CCc1cccc(C(=O)Nc2cc([C@H](C)Sc3nncn3C)ccn2)n1 [Compound 123, (S)-6-ethyl-N-(4-(1-((4-methyl-4H-1,2,4-triazol-3-yl)thio)ethyl)pyridin-2-yl)picolinamide]	≤ 10	3 to 10	1 to 3	
C[C@H](Sc1nncn1C)c1cccc(NC(=O)c2cc(C(=O)N3CC[C@@H](N)C3)ccn2)c1 [Compound 146, 4-((R)-3-aminopyrrolidine-1-carbonyl)-N-(3-((S)-1-((4-methyl-4H-1,2,4-triazol-3-yl)thio)ethyl)phenyl)picolinamide]	≤ 10	3 to 10	3 to 10	
C[C@H](Sc1nncn1C)c1cccc(NC(=O)c2cc(CCO)ccn2)c1 [Compound 46, (S)-4-(2-Hydroxyethyl)-N-(3-(1-((4-methyl-4H-1,2,4-triazol-3-yl)thio)ethyl)phenyl)picolinamide]	≤ 10	3 to 10	1 to 3	
C[C@H](Cc1nncn1C)c1cccc(NC(=O)c2cc(C(=O)NCC(C)(C)O)ccn2)c1 [Compound 226, (R)-N^4-(2-hydroxy-2-methylpropyl)-N^2-(3-(1-(4-methyl-4H-1,2,4-triazol-3-yl)propan-2-yl)phenyl)pyridine-2,4-dicarboxamide]	≤ 10	3 to 10	3 to 10	
C[C@H](Sc1nncn1C)c1ccnc(NC(=O)c2cc(N3CC[C@H](O)C3)cc(C(F)(F)F)n2)c1 [Compound 126, 4-[(3S)-3-hydroxypyrrolidin-1-yl]-N-[4-[(1S)-1-[(4-methyl-1,2,4-triazol-3-yl)sulfanyl]ethyl]-2-pyridyl]-6-(trifluoromethyl)pyridine-2-carboxamide]	≤ 10	3 to 10	1 to 3	
C[C@H](Cc1nncn1C)c1cccc(NC(=O)c2cc(N[C@H]3CC[C@@H](O)C3)ccn2)c1 [Compound 208, cis-4-(3-hydroxycyclopentylamino)-N-(3-((R)-1-(4-methyl-4H-1,2,4-triazol-3-yl)propan-2-yl)phenyl)picolinamide]	≤ 1	3 to 10	0.301 to 1	
CC(Cc1n[nH]cc1CO)c1cccc(N2Cc3c(cccc3C(F)(F)F)C2=O)c1 (stereo not drawn) [Compound 271, 2-(3-(1-(4-(hydroxymethyl)-1H-pyrazol-3-yl)propan-2-yl)phenyl)-4-(trifluoromethyl)isoindolin-1-one]	≤ 10	3 to 10	3 to 10	
C[C@H](Sc1nncn1C)c1cccc(NC(=O)c2cc(C(F)(F)F)cc(Cl)n2)c1 [Compound 66, (S)-6-chloro-N-(3-(1-((4-methyl-4H-1,2,4-triazol-3-yl)thio)ethyl)phenyl)-4-(trifluoromethyl)picolinamide]	≤ 10	3 to 10	1 to 3	
C[C@H](Sc1nncn1C)c1cccc(NC(=O)c2cc(C(F)(F)F)c3ccccc3n2)c1 [Compound 83, (S)-N-(3-(1-((4-methyl-4H-1,2,4-triazol-3-yl)thio)ethyl)phenyl)-4-(trifluoromethyl)quinoline-2-carboxamide]	≤ 10	3 to 10	1 to 3	
C[C@H](Cc1nncn1C)c1cccc(NC(=O)c2cc(C(=O)N[C@H]3CCNC3)ccn2)c1 [Compound 248, N2-(3-((R)-1-(4-methyl-4H-1,2,4-triazol-3-yl)propan-2-yl)phenyl)-N4-((s)-pyrrolidin-3-yl)pyridine-2,4-dicarboxamide]	≤ 10	3 to 10	3 to 10	
C[C@H](Cc1nncn1C)c1cccc(NC(=O)c2cc(C(=O)N3CC(O)C(C)(C)C3)ccn2)c1 (stereo partly drawn) [Compound 239, 4-(4-hydroxy-3,3-dimethylpyrrolidine-1-carbonyl)-N-(3-((R)-1-(4-methyl-4H-1,2,4-triazol-3-yl)propan-2-yl)phenyl)picolinamide]	≤ 10	0.1 to 0.3	1 to 3	
CC(C)c1nccc2c1CN(c1cccc([C@H](C)Cc3nncn3C)c1)C2=O [Compound 259, (R)-4-isopropyl-2-(3-(1-(4-methyl-4H-1,2,4-triazol-3-yl)propan-2-yl)phenyl)-2,3-dihydro-1H-pyrrolo[3,4-c]pyridin-1-one]	≤ 1	1 to 3	0.301 to 1	
CN[C@H]1CCN(C(=O)c2ccnc(C(=O)Nc3cccc([C@H](C)Cc4nncn4C)c3)c2)C1 [Compound 250, N-[3-[(2R)-1-(4-methyl-4H-1,2,4-triazol-3-yl)propan-2-yl]phenyl]-4-[(3S)-3-(methylamino)pyrrolidine-1-carbonyl]pyridine-2-carboxamide]	≤ 10	1 to 3	1 to 3	
Cc1cnc(C(=O)Nc2cccc([C@H](C)Sc3nncn3C)c2)cc1C(F)(F)F [Compound 52, (S)-5-methyl-N-(3-(1-((4-methyl-4H-1,2,4-triazol-3-yl)thio)ethyl)phenyl)-4-(trifluoromethyl)picolinamide]	≤ 10	> 10	3 to 10	
C=CCC(Sc1nncn1C)c1cccc(NC(=O)c2ccc3ccccc3n2)c1 (stereo not drawn) [Compound 134, N-[3-[1-[(4-methyl-1,2,4-triazol-3-yl)sulfanyl]but-3-enyl]phenyl]quinoline-2-carboxamide]	≤ 10	> 10	1 to 3	1 to 3
C[C@H](Sc1nncn1C)c1ccnc(NC(=O)c2cccc(C(F)(F)F)n2)c1 [Compound 102b, (S)-N-(4-(1-((4-methyl-4H-1,2,4-triazol-3-yl)thio)ethyl)pyridin-2-yl)-6-(trifluoromethyl)picolinamide]	≤ 10	1 to 3	1 to 3	1 to 3
C[C@H](Sc1nncn1C)c1ccnc(NC(=O)c2ccc3ccccc3n2)c1 [Compound 112, (S)-N-(4-(1-((4-methyl-4H-1,2,4-triazol-3-yl)thio)ethyl)pyridin-2-yl)quinoline-2-carboxamide]	≤ 1	3 to 10	0.301 to 1	1 to 3
Cn1cnnc1SC(CCO)c1cccc(NC(=O)c2cccc(C(F)(F)F)n2)c1 (stereo not drawn) [Compound 181, N-(3-(3-hydroxy-1-((4-methyl-4H-1,2,4-triazol-3-yl)thio)propyl)phenyl)-6-(trifluoromethyl)picolinamide]	≤ 10	3 to 10	1 to 3	
CNc1ccnc(C(=O)Nc2cccc([C@H](C)Sc3nncn3C)c2)c1 [Compound 60, (S)-N-(3-(1-((4-methyl-4H-1,2,4-triazol-3-yl)thio)ethyl)phenyl)-4-(methylamino)picolinamide]	≤ 10	3 to 10	1 to 3	

Reference: US20220324835A1 (Nurix Therapeutics, Inc., priority 2018, published 2022)
